US7405205B2, “Antitumor antisense sequences directed against R1 and R2 components of ribonucleotide reductase” (Lorus Therapeutics Inc., priority 1996, dated 2008)

Assays:
[1] = test system: B3/SH cells (BALB/c 3T3, empty vector); experiment: Drug sensitivity by relative colony forming efficiency; type: cell-based, mouse
[2] = test system: wild type (W.T.) mouse L cells; experiment: as above; type: cell-based
[3] = test system: RP6/ASR2 cells (RP6 with R2 antisense vector); experiment: as above; type: cell-based, mouse
[4] = test system: RP3/SH cells (10T½, H-ras and mutant p53); experiment: as above; type: cell-based, mouse
[5] = test system: H4 (H-4) hydroxyurea resistant mouse L cells; experiment: as above; type: cell-based
[6] = test system: LHF hydroxyurea resistant mouse L cells; experiment: as above; type: cell-based
[7] = test system: N/SH cells (NIH-3T3, empty vector); experiment: as above; type: cell-based, mouse
[8] = test system: N/R2+ASR2 cells (NIH-3T3, R2 and R2 antisense vectors); experiment: as above; type: cell-based, mouse
[9] = test system: RP6/SH cells (10T½, H-ras and mutant p53); experiment: as above; type: cell-based, mouse
[10] = test system: SC2 hydroxyurea resistant mouse L cells; experiment: as above; type: cell-based
[11] = test system: H2 (H-2) hydroxyurea resistant mouse L cells; experiment: as above; type: cell-based
[12] = test system: RP3/ASR2 cells (RP3 with R2 antisense vector); experiment: as above; type: cell-based, mouse
HeLa S3 cells = experiment: Sensitisation to PALA and MTX by antisense, relative colony forming efficiency; type: cell-based, human; details: PALA 20 μM, without AS-II-2229B-20
Experimental: (§1) Drug Selections: Cells ranging in numbers from 500 to 1-2×10^5 were added to 100 mm tissue culture plates in growth medium containing 10% dialyzed fetal bovine serum, and in the absence or presence of drug [Huang et al., 1995a; Choy et al., 1988]. The culture medium was replaced with fresh medium every week for two to three weeks. Surviving cells were visualized by methylene blue staining, and colonies of about 50 cells or more were scored [Huang et al., 1995a]. The relative colony forming efficiency was defined as the ability to produce colonies in the presence of a drug divided by that ability in the absence of drug.
(§2) Colony forming efficiency was determined as previously reported [Huang and Wright, 1994]. The cells were cultured for 24 hours at 37° C. in growth medium with 10% fetal bovine serum. The cells were washed in 5 ml phosphate buffered saline, pH 7.2, once prior to lipofectin+/−oligonucleotide treatment.
(§3) The oligonucleotides being tested were added to cell cultures in the presence of 2.5 μg of DOTMA/DOPE (Lipofectin; Life Technologies, Inc.) for four hours. The oligonucleotide was tested at 0.2 μM unless otherwise indicated. Controls were the cultures treated with lipofectin but without the oligonucleotide. After 4 hours the medium containing the oligonucleotide was removed and washed with 5 ml of growth medium. The cells were then cultured in growth medium containing 10% fetal bovine serum for seven to ten days. Surviving cells were visualized by methylene blue staining, and colonies were scored. In some experiments cell aliquotes were removed from the culture and viability was determined using the trypan blue exclusion test [Phillips, 1973]. Results were analyzed as percent of surviving cells compared to control cells.
(§4) Based on Example 2, treatment of human tumor cells with very low concentrations of short antisense sequences was tested to determine if these constructs could sensitize the tumor cells to inhibitory effects of other chemotherapeutic drugs. […] These observations indicate that antisense compounds targeting the R2 message can act synergistically with well known chemotherapeutic agents.

HeLa 1 mM cells = experiment: as above; type: cell-based, human; details: without AS-II-2229B-20
Experimental: as §1, §2, §3, §4

[13] = test system: N/R2-4 cells (NIH-3T3, R2 expression vector); experiment: Drug sensitivity by relative colony forming efficiency; type: cell-based, mouse
[14] = test system: B3/mR2 cells (BALB/c 3T3, R2 expression vector); experiment: as above; type: cell-based, mouse
[15] = test system: B3/R2c2 cells (clone of B3/mR2); experiment: as above; type: cell-based, mouse

O=C(O)C[C@H](NC(=O)CP(=O)(O)O)C(=O)O [PALA, N-(phosphonacetyl)-L-aspartate]
Relative Colony Forming Efficiencies ([1]; PALA 10 μM): 17.9 ± 11.0 × 10^4 | Relative Colony Forming Efficiencies ([1]; PALA 20 μM): 0.39 ± 0.18 × 10^4 | Relative Colony Forming Efficiencies ([1]; PALA 40 μM): 0.35 ± 0.01 × 10^4 | Relative Colony Forming Efficiencies ([1]; PALA 50 μM): 0.24 ± 0.14 × 10^4 | Relative Colony Forming Efficiencies ([1]; PALA 60 μM): 0.12 ± 0.05 × 10^4 | Relative Colony Forming Efficiencies ([1]; PALA 80 μM): 0.17 ± 0.08 × 10^4 | Relative Colony Forming Efficiencies ([2]; PALA 20 μM): 172.3 ± 126.3 × 10^4 | Relative Colony Forming Efficiencies ([2]; PALA 30 μM): 50.3 ± 20.5 × 10^4 | Relative Colony Forming Efficiencies ([2]; PALA 40 μM): 15.0 ± 7.0 × 10^4 | Relative Colony Forming Efficiencies ([2]; PALA 50 μM): 3.6 ± 1.1 × 10^4 | Relative Colony Forming Efficiencies ([2]; PALA 60 μM): 1.3 ± 0.4 × 10^4 | Relative Colony Forming Efficiencies ([3]; PALA 10 μM): 2083 ± 960 × 10^4 | Relative Colony Forming Efficiencies ([3]; PALA 20 μM): 368 ± 154 × 10^4 | Relative Colony Forming Efficiencies ([3]; PALA 30 μM): 316 ± 171 × 10^4 | Relative Colony Forming Efficiencies ([3]; PALA 40 μM): 116 ± 54 × 10^4 | Relative Colony Forming Efficiencies ([3]; PALA 50 μM): 41.7 ± 23 × 10^4 | Relative Colony Forming Efficiencies ([3]; PALA 60 μM): 13.2 ± 6.3 × 10^4 | Relative Colony Forming Efficiencies ([4]; PALA 10 μM): 2569 ± 338 × 10^4 | Relative Colony Forming Efficiencies ([4]; PALA 20 μM): 123.4 ± 19.3 × 10^4 | Relative Colony Forming Efficiencies ([4]; PALA 30 μM): 45.2 ± 7.8 × 10^4 | Relative Colony Forming Efficiencies ([4]; PALA 40 μM): 15.0 ± 4.9 × 10^4 | Relative Colony Forming Efficiencies ([4]; PALA 50 μM): 9.3 ± 3.6 × 10^4 | Relative Colony Forming Efficiencies ([4]; PALA 60 μM): 3.9 ± 1.6 × 10^4 | Relative Colony Forming Efficiencies ([5]; PALA 20 μM): 322.5 ± 36.4 × 10^4 | Relative Colony Forming Efficiencies ([5]; PALA 30 μM): 84.0 ± 30.0 × 10^4 | Relative Colony Forming Efficiencies ([5]; PALA 40 μM): 43.3 ± 9.6 × 10^4 | Relative Colony Forming Efficiencies ([5]; PALA 50 μM): 23.2 ± 0.5 × 10^4 | Relative Colony Forming Efficiencies ([5]; PALA 60 μM): 11.1 ± 1.4 × 10^4 | Relative Colony Forming Efficiencies ([6]; PALA 20 μM): 233.3 ± 3.6 × 10^4 | Relative Colony Forming Efficiencies ([6]; PALA 30 μM): 78.8 ± 7.9 × 10^4 | Relative Colony Forming Efficiencies ([6]; PALA 40 μM): 46.5 ± 9.9 × 10^4 | Relative Colony Forming Efficiencies ([6]; PALA 50 μM): 25.0 ± 6.8 × 10^4 | Relative Colony Forming Efficiencies ([6]; PALA 60 μM): 10.7 ± 3.0 × 10^4 | Relative Colony Forming Efficiencies ([7]; PALA 10 μM): 5.28 ± 1.5 × 10^4 | Relative Colony Forming Efficiencies ([7]; PALA 15 μM): 5.83 ± 2.7 × 10^4 | Relative Colony Forming Efficiencies ([7]; PALA 20 μM): 0.30 ± 0.1 × 10^4 | Relative Colony Forming Efficiencies ([7]; PALA 25 μM): 0.53 ± 0.3 × 10^4 | Relative Colony Forming Efficiencies ([7]; PALA 30 μM): 0.48 ± 0.08 × 10^4 | Relative Colony Forming Efficiencies ([7]; PALA 40 μM): 0.27 ± 0.2 × 10^4 | Relative Colony Forming Efficiencies ([8]; PALA 10 μM): 1.81 ± 0.8 × 10^4 | Relative Colony Forming Efficiencies ([8]; PALA 15 μM): 0.58 ± 0.3 × 10^4 | Relative Colony Forming Efficiencies ([8]; PALA 20 μM): 0.04 ± 0.04 × 10^4 | Relative Colony Forming Efficiencies ([8]; PALA 25 μM): 0.04 ± 0.04 × 10^4 | Relative Colony Forming Efficiencies ([8]; PALA 30 μM): 0.12 ± 0.12 × 10^4 | Relative Colony Forming Efficiencies ([8]; PALA 40 μM): 0.04 ± 0.04 × 10^4 | Relative Colony Forming Efficiencies ([9]; PALA 10 μM): 4619 ± 648 × 10^4 | Relative Colony Forming Efficiencies ([9]; PALA 20 μM): 1220 ± 255 × 10^4 | Relative Colony Forming Efficiencies ([9]; PALA 30 μM): 450 ± 129 × 10^4 | Relative Colony Forming Efficiencies ([9]; PALA 40 μM): 271 ± 68 × 10^4 | Relative Colony Forming Efficiencies ([9]; PALA 50 μM): 109 ± 23 × 10^4 | Relative Colony Forming Efficiencies ([9]; PALA 60 μM): 55.5 ± 13 × 10^4 | Relative Colony Forming Efficiencies ([10]; PALA 20 μM): 850.1 ± 325.2 × 10^4 | Relative Colony Forming Efficiencies ([10]; PALA 30 μM): 187.6 ± 46.4 × 10^4 | Relative Colony Forming Efficiencies ([10]; PALA 40 μM): 37.5 ± 8.7 × 10^4 | Relative Colony Forming Efficiencies ([10]; PALA 50 μM): 47.5 ± 35.8 × 10^4 | Relative Colony Forming Efficiencies ([10]; PALA 60 μM): 17.6 ± 1.2 × 10^4 | Relative Colony Forming Efficiencies ([11]; PALA 20 μM): 406.7 ± 202.2 × 10^4 | Relative Colony Forming Efficiencies ([11]; PALA 30 μM): 39.4 ± 16.4 × 10^4 | Relative Colony Forming Efficiencies ([11]; PALA 40 μM): 23.3 ± 10.4 × 10^4 | Relative Colony Forming Efficiencies ([11]; PALA 50 μM): 7.9 ± 1.7 × 10^4 | Relative Colony Forming Efficiencies ([11]; PALA 60 μM): 3.6 ± 0.6 × 10^4 | Relative Colony Forming Efficiencies ([12]; PALA 10 μM): 1183 ± 384 × 10^4 | Relative Colony Forming Efficiencies ([12]; PALA 20 μM): 86.1 ± 32.9 × 10^4 | Relative Colony Forming Efficiencies ([12]; PALA 30 μM): 19.5 ± 4.7 × 10^4 | Relative Colony Forming Efficiencies ([12]; PALA 40 μM): 4.7 ± 0.6 × 10^4 | Relative Colony Forming Efficiencies ([12]; PALA 50 μM): 2.1 ± 0.8 × 10^4 | Relative Colony Forming Efficiencies ([12]; PALA 60 μM): 0.3 ± 0.2 × 10^4 | Relative colony Forming Efficiency (HeLa S3 cells): 350 ± 50 | Relative colony Forming Efficiency (HeLa 1 mM cells; PALA 20 μM): 377 ± 21 | Relative colony Forming Efficiency (HeLa 1 mM cells; PALA 30 μM): 311 ± 9.5 | Relative Colony Forming Efficiencies ([13]; PALA 10 μM): 6.22 ± 3.3 × 10^4 | Relative Colony Forming Efficiencies ([13]; PALA 15 μM): 10.0 ± 5.5 × 10^4 | Relative Colony Forming Efficiencies ([13]; PALA 20 μM): 1.71 ± 1.2 × 10^4 | Relative Colony Forming Efficiencies ([13]; PALA 25 μM): 0.8 ± 0.7 × 10^4 | Relative Colony Forming Efficiencies ([13]; PALA 30 μM): 1.03 ± 0.07 × 10^4 | Relative Colony Forming Efficiencies ([13]; PALA 40 μM): 0.14 ± 0.08 × 10^4 | Relative Colony Forming Efficiencies ([14]; PALA 10 μM): 965.0 ± 529.7 × 10^4 | Relative Colony Forming Efficiencies ([14]; PALA 20 μM): 120.1 ± 28.4 × 10^4 | Relative Colony Forming Efficiencies ([14]; PALA 40 μM): 25.0 ± 4.6 × 10^4 | Relative Colony Forming Efficiencies ([14]; PALA 50 μM): 27.6 ± 8.9 × 10^4 | Relative Colony Forming Efficiencies ([14]; PALA 60 μM): 25.0 ± 6.4 × 10^4 | Relative Colony Forming Efficiencies ([14]; PALA 80 μM): 27.1 ± 6.75 × 10^4 | Relative Colony Forming Efficiencies ([15]; PALA 10 μM): 1230.0 ± 97.0 × 10^4 | Relative Colony Forming Efficiencies ([15]; PALA 20 μM): 55.1 ± 15.6 × 10^4 | Relative Colony Forming Efficiencies ([15]; PALA 40 μM): 20.2 ± 6.8 × 10^4 | Relative Colony Forming Efficiencies ([15]; PALA 50 μM): 15.9 ± 4.0 × 10^4 | Relative Colony Forming Efficiencies ([15]; PALA 60 μM): 18.7 ± 5.3 × 10^4 | Relative Colony Forming Efficiencies ([15]; PALA 80 μM): 20.0 ± 4.9 × 10^4
